# Test results taken from the supplement of paper PMC10307832.
# Tests used:
# Test in all cases: relative viability (nuclei count vs DMSO), 5 days (fraction); higher = more cells survive
# [1] = compound: NC1(c2ccc(-c3nc4ccn5c(=O)[nH]nc5c4cc3-c3ccccc3)cc2)CCC1 [MK-2206] + Cc1nc(Nc2ncc(C(=O)Nc3c(C)cccc3Cl)s2)cc(N2CCN(CCO)CC2)n1 [Dasatinib] (partner 0.075 µM)
# Summary of the method: (§1)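 Relative viability is defined as nuclei in treated wells over nuclei in vehicle wells. Duplicate plates were run and medians reported. Lung cancer cell lines in 1536-well plates were dosed by pin tool one day after seeding, with one drug or with a fixed anchor-drug dose plus five library-drug doses (not always all listed) in √10 steps, and nuclei were counted after 5 days.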
# [2] = compound: NC1(c2ccc(-c3nc4ccn5c(=O)[nH]nc5c4cc3-c3ccccc3)cc2)CCC1 [MK-2206] + COc1cccc2cc(-c3nc([C@H]4CC[C@H](C(=O)O)CC4)n4ncnc(N)c34)[nH]c12 [OSI-027] (partner 0.5 µM)
# Summary of the method: as §1
# [3] = compound: NC1(c2ccc(-c3nc4ccn5c(=O)[nH]nc5c4cc3-c3ccccc3)cc2)CCC1 [MK-2206] + Cc1nc(NC(=O)N2CCC[C@H]2C(N)=O)sc1-c1ccnc(C(C)(C)C(F)(F)F)c1 [Alpelisib] (partner 2 µM)
# Summary of the method: as §1
# [4] = compound: NC1(c2ccc(-c3nc4ccn5c(=O)[nH]nc5c4cc3-c3ccccc3)cc2)CCC1 [MK-2206] + CS(=O)(=O)CCNCc1ccc(-c2ccc3ncnc(Nc4ccc(OCc5cccc(F)c5)c(Cl)c4)c3c2)o1 [Lapatinib] (partner 2 µM)
# Summary of the method: as §1
# [5] = compound: NC1(c2ccc(-c3nc4ccn5c(=O)[nH]nc5c4cc3-c3ccccc3)cc2)CCC1 [MK-2206] + CC(=O)Nc1cccc(-n2c(=O)n(C3CC3)c(=O)c3c(Nc4ccc(I)cc4F)n(C)c(=O)c(C)c32)c1 [Trametinib] (partner 0.02 µM)
# Summary of the method: as §1
cell line,measurement,setting,value
HCC-78,relative viability,[1]; first compound 0.01 µM,0.511
same,relative viability,[1]; first compound 0.3162 µM,0.373
same,relative viability,[1]; first compound 1 µM,0.227
same,relative viability,[2]; first compound 0.01 µM,0.394
same,relative viability,[2]; first compound 0.3162 µM,0.351
same,relative viability,[2]; first compound 1 µM,0.285
same,relative viability,[3]; first compound 0.01 µM,0.372
same,relative viability,[3]; first compound 0.03162 µM,0.336
same,relative viability,[3]; first compound 0.3162 µM,0.256
same,relative viability,[3]; first compound 1 µM,0.21
same,relative viability,[4]; first compound 0.01 µM,0.703
same,relative viability,[4]; first compound 0.03162 µM,0.376
same,relative viability,[4]; first compound 0.3162 µM,0.88
same,relative viability,[4]; first compound 1 µM,0.703
same,relative viability,[5]; first compound 0.01 µM,0.746
same,relative viability,[5]; first compound 0.03162 µM,0.832
same,relative viability,[5]; first compound 0.3162 µM,0.786
same,relative viability,[5]; first compound 1 µM,0.907
HCC-366,relative viability,[1]; first compound 0.01 µM,0.696
same,relative viability,[1]; first compound 0.03162 µM,0.68
same,relative viability,[1]; first compound 0.3162 µM,0.434
same,relative viability,[1]; first compound 1 µM,0.222
same,relative viability,[2]; first compound 0.01 µM,0.927
same,relative viability,[2]; first compound 0.03162 µM,0.962
same,relative viability,[2]; first compound 0.3162 µM,0.569
same,relative viability,[2]; first compound 1 µM,0.44
same,relative viability,[3]; first compound 0.01 µM,0.526
same,relative viability,[3]; first compound 0.03162 µM,0.48
same,relative viability,[3]; first compound 0.3162 µM,0.244
same,relative viability,[3]; first compound 1 µM,0.212
same,relative viability,[4]; first compound 0.01 µM,1.05
same,relative viability,[4]; first compound 0.03162 µM,1.09
same,relative viability,[4]; first compound 0.3162 µM,1.08
same,relative viability,[4]; first compound 1 µM,1.16
same,relative viability,[5]; first compound 0.01 µM,0.302
same,relative viability,[5]; first compound 0.03162 µM,0.384
same,relative viability,[5]; first compound 0.3162 µM,0.204
same,relative viability,[5]; first compound 1 µM,0.223
HCC-827,relative viability,[1]; first compound 0.01 µM,0.476
same,relative viability,[1]; first compound 0.03162 µM,0.272
same,relative viability,[1]; first compound 0.3162 µM,0.258
same,relative viability,[1]; first compound 1 µM,0.362
same,relative viability,[2]; first compound 0.01 µM,0.78
same,relative viability,[2]; first compound 0.03162 µM,0.871
same,relative viability,[2]; first compound 0.3162 µM,0.655
same,relative viability,[2]; first compound 1 µM,0.391
same,relative viability,[3]; first compound 0.01 µM,1.07
same,relative viability,[3]; first compound 0.03162 µM,1.05
same,relative viability,[3]; first compound 0.3162 µM,0.821
same,relative viability,[3]; first compound 1 µM,0.816
same,relative viability,[4]; first compound 0.01 µM,0.173
same,relative viability,[4]; first compound 0.03162 µM,0.193
same,relative viability,[4]; first compound 0.3162 µM,0.205
same,relative viability,[4]; first compound 1 µM,0.179
same,relative viability,[5]; first compound 0.01 µM,0.541
same,relative viability,[5]; first compound 0.03162 µM,0.548
same,relative viability,[5]; first compound 0.3162 µM,0.491
same,relative viability,[5]; first compound 1 µM,0.444
HOP-62,relative viability,[1]; first compound 0.01 µM,0.592
same,relative viability,[1]; first compound 0.03162 µM,0.73
same,relative viability,[1]; first compound 0.3162 µM,0.624
same,relative viability,[1]; first compound 1 µM,0.665
same,relative viability,[2]; first compound 0.01 µM,0.808
same,relative viability,[2]; first compound 0.03162 µM,0.808
same,relative viability,[2]; first compound 0.3162 µM,0.74
same,relative viability,[2]; first compound 1 µM,0.828
same,relative viability,[3]; first compound 0.01 µM,1.14
same,relative viability,[3]; first compound 0.03162 µM,0.925
same,relative viability,[3]; first compound 0.3162 µM,1.03
same,relative viability,[3]; first compound 1 µM,0.914
same,relative viability,[4]; first compound 0.01 µM,0.946
same,relative viability,[4]; first compound 0.03162 µM,1.12
same,relative viability,[4]; first compound 0.3162 µM,0.939
same,relative viability,[4]; first compound 1 µM,1.26
same,relative viability,[5]; first compound 0.01 µM,0.381
same,relative viability,[5]; first compound 0.03162 µM,0.368
same,relative viability,[5]; first compound 0.3162 µM,0.334
same,relative viability,[5]; first compound 1 µM,0.328
IA-LM,relative viability,[3]; first compound 0.01 µM,0.809
same,relative viability,[3]; first compound 0.03162 µM,0.869
same,relative viability,[3]; first compound 0.3162 µM,0.578
same,relative viability,[3]; first compound 1 µM,0.544
same,relative viability,[4]; first compound 0.03162 µM,0.765
same,relative viability,[4]; first compound 0.3162 µM,0.695
same,relative viability,[4]; first compound 1 µM,0.438
LC-2-ad,relative viability,[1]; first compound 0.01 µM,0.581
same,relative viability,[1]; first compound 0.03162 µM,0.579
same,relative viability,[1]; first compound 0.3162 µM,0.505
same,relative viability,[1]; first compound 1 µM,0.2
same,relative viability,[2]; first compound 0.01 µM,0.76
same,relative viability,[2]; first compound 0.03162 µM,0.837
same,relative viability,[2]; first compound 0.3162 µM,0.592
same,relative viability,[2]; first compound 1 µM,0.383
same,relative viability,[3]; first compound 0.01 µM,0.888
same,relative viability,[3]; first compound 0.03162 µM,0.847
same,relative viability,[3]; first compound 0.3162 µM,0.802
same,relative viability,[3]; first compound 1 µM,0.793
same,relative viability,[4]; first compound 0.01 µM,0.944
same,relative viability,[4]; first compound 0.03162 µM,1.08
same,relative viability,[4]; first compound 0.3162 µM,1.03
same,relative viability,[4]; first compound 1 µM,0.542
same,relative viability,[5]; first compound 0.01 µM,0.924
same,relative viability,[5]; first compound 0.03162 µM,0.886
same,relative viability,[5]; first compound 0.3162 µM,0.933
same,relative viability,[5]; first compound 1 µM,0.927
LCLC-97TM1,relative viability,[1]; first compound 0.01 µM,0.847
same,relative viability,[1]; first compound 0.03162 µM,0.858
same,relative viability,[1]; first compound 0.3162 µM,0.893
same,relative viability,[1]; first compound 1 µM,0.898
same,relative viability,[2]; first compound 0.01 µM,0.698
same,relative viability,[2]; first compound 0.03162 µM,0.498
same,relative viability,[2]; first compound 0.3162 µM,0.249
same,relative viability,[2]; first compound 1 µM,0.361
same,relative viability,[3]; first compound 0.01 µM,0.316
same,relative viability,[3]; first compound 0.03162 µM,0.261
same,relative viability,[3]; first compound 0.3162 µM,0.185
same,relative viability,[3]; first compound 1 µM,0.204
same,relative viability,[4]; first compound 0.01 µM,1.67
same,relative viability,[4]; first compound 0.03162 µM,1.35
same,relative viability,[4]; first compound 0.3162 µM,0.697
same,relative viability,[4]; first compound 1 µM,0.52
same,relative viability,[5]; first compound 0.01 µM,0.195
same,relative viability,[5]; first compound 0.03162 µM,0.205
same,relative viability,[5]; first compound 0.3162 µM,0.191
same,relative viability,[5]; first compound 1 µM,0.206
LCLC-103H,relative viability,[1]; first compound 0.01 µM,0.459
same,relative viability,[1]; first compound 0.03162 µM,0.497
same,relative viability,[1]; first compound 0.3162 µM,0.461
same,relative viability,[1]; first compound 1 µM,0.355
same,relative viability,[2]; first compound 0.01 µM,0.476
same,relative viability,[2]; first compound 0.03162 µM,0.459
same,relative viability,[2]; first compound 0.3162 µM,0.445
same,relative viability,[2]; first compound 1 µM,0.408
same,relative viability,[3]; first compound 0.01 µM,1.02
same,relative viability,[3]; first compound 0.03162 µM,0.977
same,relative viability,[3]; first compound 0.3162 µM,0.933
same,relative viability,[3]; first compound 1 µM,0.826
same,relative viability,[5]; first compound 0.01 µM,0.691
same,relative viability,[5]; first compound 0.03162 µM,0.635
same,relative viability,[5]; first compound 0.3162 µM,0.666
same,relative viability,[5]; first compound 1 µM,0.659
LK-2,relative viability,[1]; first compound 0.01 µM,0.231
same,relative viability,[1]; first compound 0.03162 µM,0.299
same,relative viability,[1]; first compound 0.3162 µM,0.327
same,relative viability,[1]; first compound 1 µM,0.19
same,relative viability,[2]; first compound 0.01 µM,0.179
same,relative viability,[2]; first compound 0.03162 µM,0.199
same,relative viability,[2]; first compound 0.3162 µM,0.181
same,relative viability,[2]; first compound 1 µM,0.151
same,relative viability,[3]; first compound 0.01 µM,0.977
same,relative viability,[3]; first compound 0.03162 µM,1.42
same,relative viability,[3]; first compound 0.3162 µM,1.13
same,relative viability,[3]; first compound 1 µM,1.06
same,relative viability,[4]; first compound 0.01 µM,1.03
same,relative viability,[4]; first compound 0.03162 µM,1.05
same,relative viability,[4]; first compound 0.3162 µM,0.863
same,relative viability,[4]; first compound 1 µM,0.854
same,relative viability,[5]; first compound 0.01 µM,0.826
same,relative viability,[5]; first compound 0.03162 µM,0.775
same,relative viability,[5]; first compound 0.3162 µM,0.694
same,relative viability,[5]; first compound 1 µM,0.602
